Test results reported in BindingDB's records for patent US11161864 (Venenum Biodesign, 2021).

Biological target: T1, Stimulator of interferon genes protein [154-378] (Mus musculus, UniProt Q3TBT3)
T1 construct: 154-378
T1 sequence (Q3TBT3 whole entry): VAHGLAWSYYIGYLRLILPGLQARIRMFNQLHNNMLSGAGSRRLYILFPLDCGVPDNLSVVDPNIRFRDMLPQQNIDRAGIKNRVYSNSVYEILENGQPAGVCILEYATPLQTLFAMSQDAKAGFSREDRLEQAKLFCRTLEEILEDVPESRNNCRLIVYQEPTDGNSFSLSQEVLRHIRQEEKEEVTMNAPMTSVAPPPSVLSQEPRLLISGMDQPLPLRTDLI
Experiment: Binding Assay

## NC(=O)c1cnc2c(c1)nc1n2CCOP(=O)(S)OC[C@H]2O[C@@H](n3cnc4c(=O)[nH]c(N)nc43)[C@H](OP(=O)(S)OC1)[C@@H]2F (stereo partly specified) [US11161864, Example 37A]
  IC50: < 1000 nM
